From ChEMBL document CHEMBL1159101, “Structural diversity of nucleoside phosphonic acids as a key factor in the discovery of potent inhibitors of rat T-cell lymphoma thymidine phosphorylase” (Bioorg Med Chem Lett, 2010)

Legend:
[1] = target: T1, Thymidine phosphorylase (Rattus norvegicus) (UniProt Q5FVR2); assay: Inhibition of thymidine phosphorylase in T cell lymphomas of Sprague-Dawley rat assessed as residual activity at 10 uM in presence of 100 uM thymidine and 200 uM phosphate
T1 sequence (whole entry): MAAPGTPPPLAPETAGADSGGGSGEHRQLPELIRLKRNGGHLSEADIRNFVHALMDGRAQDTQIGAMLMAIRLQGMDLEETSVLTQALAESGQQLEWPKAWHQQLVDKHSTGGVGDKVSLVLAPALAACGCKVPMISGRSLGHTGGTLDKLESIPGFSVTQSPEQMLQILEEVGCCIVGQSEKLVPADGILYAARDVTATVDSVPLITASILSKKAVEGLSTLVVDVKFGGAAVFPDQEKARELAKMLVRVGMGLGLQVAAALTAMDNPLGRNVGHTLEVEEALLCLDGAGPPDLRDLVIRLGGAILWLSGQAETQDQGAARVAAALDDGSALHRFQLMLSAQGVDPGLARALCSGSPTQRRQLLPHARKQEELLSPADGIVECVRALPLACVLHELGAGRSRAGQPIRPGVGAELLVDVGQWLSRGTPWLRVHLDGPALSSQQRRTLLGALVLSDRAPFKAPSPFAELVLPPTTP

[2] = target: T2, Thymidine phosphorylase (Rattus norvegicus, UniProt Q5FVR2); assay: Inhibition of thymidine phosphorylase in T cell lymphomas of Sprague-Dawley rat in presence of 100 uM thymidine and 200 uM phosphate; assay type: cell-based
T2 sequence (Q5FVR2 whole entry): T1 sequence (whole entry)

Row | Structure (SMILES) | Activity [1] [%] | IC50 [2] [nM]
1 | Cc1cn(CCOC(c2ccccc2)P(=O)(O)O)c(=O)[nH]c1=O (stereo not given) | 9 | 
2 | O=c1ccn([C@H]2C[C@@H](CO)N(CP(=O)(O)O)C2)c(=O)[nH]1 | 17 | 
3 | Cc1cn(CC(OCP(=O)(O)O)Oc2ccccc2)c(=O)[nH]c1=O (stereo not given) | 1 | 750
4 | Cc1cn([C@H]2C[C@H](CO)N(C(=O)P(=O)(O)O)C2)c(=O)[nH]c1=O | 2 | 45
5 | Cc1cn(C2CCN(C(=S)P(=O)(O)O)C2)c(=O)[nH]c1=O (racemic) | 9 | 190
6 | Cc1cn([C@@H]2CN(C(=O)P(=O)(O)O)C[C@@H]2O)c(=O)[nH]c1=O | 0 | 11
7 | Cc1cn([C@H]2C[C@H]3O[C@](c4ccccc4)(P(=O)(O)O)OC[C@H]3O2)c(=O)[nH]c1=O | 4 | 
8 | Cc1cn(C2CCN(CP(=O)(O)O)C2)c(=O)[nH]c1=O (racemic) | 29 | 
9 | Cc1cn(CCOC2(P(=O)(O)O)CCCCC2)c(=O)[nH]c1=O | 21 | 
10 | Cc1cn([C@@H]2CN(C(=S)P(=O)(O)O)C[C@@H]2O)c(=O)[nH]c1=O | 0 | 15
11 | Cc1cn([C@H]2C[C@H]3O[C@@](CBr)(P(=O)(O)O)OC[C@H]3O2)c(=O)[nH]c1=O | 26 | 
12 | Cc1cn(CCOC2(P(=O)(O)O)CCCC2)c(=O)[nH]c1=O | 14 | 
13 | C=CCOC(Cn1cc(C)c(=O)[nH]c1=O)OCP(=O)(O)O (stereo not given) | 10 | 300
14 | Cc1cn(C2CCN(C(=O)P(=O)(O)O)C2)c(=O)[nH]c1=O (racemic) | 3 | 350
15 | Cc1cn([C@H]2C[C@H]3O[C@](CBr)(P(=O)(O)O)OC[C@H]3O2)c(=O)[nH]c1=O | 20 | 
16 | Cc1cn([C@@H]2CN(C(=O)P(=O)(O)O)C[C@H]2O)c(=O)[nH]c1=O | 4 | 220
17 | Cc1cn([C@H]2C[C@H]3O[C@@](c4ccccc4)(P(=O)(O)O)OC[C@H]3O2)c(=O)[nH]c1=O | 47 | 
18 | Cc1cn([C@H]2C[C@H](CO)N(CP(=O)(O)O)C2)c(=O)[nH]c1=O | 0 | 250
19 | Cc1cn([C@@H]2CN(CP(=O)(O)O)C[C@@H]2O)c(=O)[nH]c1=O | 1 | 45
20 | Cc1cn(C2CCN(C(=O)CP(=O)(O)O)C2)c(=O)[nH]c1=O (racemic) | 59 | 
